Series [1] concerns normal lung fibroblast MRC5. As to the kind of experiment: MTT assay, MRC5. In kind it is cell-based, human. Here is the method: (§1) Human colon carcinoma HT29, human breast carcinoma MCF7, human bone sarcoma U2OS, human prostate carcinoma PC3, and human cervix carcinoma HeLa cells were obtained from the ATCC. A2780/CP70 cisplatin-resistant human ovarian cancer cells were kindly provided by Dr. Stephen B. Howell (Moores UCSD Cancer Center) and the human lung carcinoma cell lines A549 and normal lung fibroblast MRC5 by David E. Root (Whitehead Institute for Biomedical Research). Cells were incubated at 37° C. in 5% CO2 and grown in RPMI (HT29, A2780/CP70, and PC3) or DMEM (A549, MRC5, HeLa, MCF7, and U2OS) medium supplemented with 10% fetal bovine serum and 1% penicillin/streptomycin. Cells were passed every 3 to 4 days and restarted from a frozen stock upon reaching pass number 20.
(§2) Solutions of the platinum compounds were freshly prepared in sterile PBS before use and their concentrations quantitated by atomic absorption spectroscopy. […] The cells were then treated with 20 μL of 3-(4,5-dimethylthiazol-2-yl)-2,5-diphenyltetrazolium bromide (MTT) (5 mg/mL in PBS) and incubated for 4 h. The medium was removed, 100 μL of DMSO was added to the cells, and the absorbance of the purple formazan was recorded at 560 nm using a BioTek Synergy HT multi-detection microplate plate reader. Each condition was performed in triplicate and three independent experiments were carried out for each cell line.
A general note: Formazan colour is commonly taken as a measure of viable cells.

Series [2] deals with human cervix carcinoma HeLa cells. As to the kind of experiment: MTT assay, HeLa. In kind it is cell-based. Conditions: 72-h incubation.
Procedure: (§6) Solutions of the platinum compounds were freshly prepared in sterile PBS before use and their concentrations quantitated by atomic absorption spectroscopy. Cells were seeded on a 96-well plate (1200 cells per well for cancer cells and 1800 cells per well for the normal lung fibroblasts) in 100 μL RPMI or DMEM media, and incubated for 24 h. […] The cells were then treated with 20 μL of 3-(4,5-dimethylthiazol-2-yl)-2,5-diphenyltetrazolium bromide (MTT) (5 mg/mL in PBS) and incubated for 4 h. The medium was removed, 100 μL of DMSO was added to the cells, and the absorbance of the purple formazan was recorded at 560 nm using a BioTek Synergy HT multi-detection microplate plate reader. Each condition was performed in triplicate and three independent experiments were carried out for each cell line.
(§7) Human prostate carcinoma (PC3) and human cervix carcinoma (HeLa) cells were obtained from the ATCC. The human lung carcinoma cell line A549 was kindly provided by David E. Root (Whitehead Institute for Biomedical Research). Cells were incubated at 37° C. in 5% CO2 and grown in RPMI (PC3) or DMEM (A549 and HeLa) medium supplemented with 10% fetal bovine serum and 1% penicillin/streptomycin. Cells were passaged every 3 to 4 days and restarted from the frozen stock upon reaching passage number 20.
(§8) Solutions of the platinum agents were freshly prepared in sterile PBS before use and the platinum content was quantitated by AAS. Cells were seeded on 96 well plates (1200 cells per well) in 100 μL RPMI or DMEM media\ and incubated for 24 hours. […] The cells were then treated with 20 μL of 3-(4,5-dimethylthiazol-2-yl)-2,5-diphenyltetrazolium bromide (MTT) (5 mg/mL in PBS) and incubated for 4 h. The medium was removed, 100 μL of DMSO were added to the cells, and the absorbance of the purple formazan was recorded at 570 nm using a BioTek Synergy HT multi-detection microplate plate reader. For each cell line, three independent experiments were carried out in triplicate.
For series [3] the following is noted: D2O at 37° C.
Procedure: (§9) The 1-D ^1H NMR kinetic studies were performed in duplicate as a standard time-arrayed experiment using a variable delayed list. Incremented 1-D spectra were processed in exactly the same way and signals of aromatic amine ligands from platinum compounds were integrated. The relative concentrations of the platinum compound at each time point were calculated from peak integrals. […] Reactions of platinum compounds with 5′-dGMP were performed in NMR tubes containing 2 mM of the platinum compounds and 32 mM (16 equiv) of 5′-dGMP in 10 mM PBS buffer, D2O, pH*7.4 at 37° C.
Another series concerns 5′-dGMP. The settings on record: 16 equiv 5′-dGMP, 37° C., PBS pH 7.4.
In series [4] the test system is GLuc expression in HT29 cells. The series is described as follows: Transcription assay, globally platinated pGLuc, HT29. It is filed as cell-based, human. The settings on record: for transcription level (normalized against unplatinated plasmid): Pt/DNA ratio of […] for phenanthriplatin. Here is the method:
(§3) Transfection of transcription probes into A549 and HT29 cells with the pGLuc plasmid was carried out using liposomal transfecting agents. Determination of expression levels was tested by Luciferase assays monitored by a luminometer (J. Am. Chem. Soc. 2010, 132, 7429-7435). A549 cells were plated in 96-well plates at 2,000 cells/well and HT29 cells were plated in 96-well plates at 6,000 cells/well. After 48 h incubation (at ˜30% confluence), cells were transfected with 50 ng of platinated plasmids in 25 μL Opti-MEM and 0.125 μL Lipofectamine 2000, and subsequently 50 μL of antibiotics-free DMEM supplemented with 10% FBS. After 2 h, the cells were washed with medium and 100 μL of fresh medium was added. The experiment was carried out in quadruplicate.
(§4) GLuc activity was monitored using a luminescence plate reader (Synergy 2, BioTek, Winooski, Vt., USA). A 10 μL volume of medium at different time points (12, 24, 36, 48, 60 h) was transferred into opaque white 96-well plates, and 25 μL of GLuc assay solution (10 μM colelenterazine (NanoLight Technologies, Pinetop, Ariz., USA) in 2.5 mM acidified methanol (100 mM HCl), buffer (10 mM Tris-HCl pH 7.8, 1 mM EDTA, 0.6 M NaCl)) was added by the automatic injector of the instrument.
(§5) In another embodiment, A549 or HT29 cells were transfected using the platinated transcription probes, and transcription levels were investigated by determining GLuc expression as measured by […] following addition of coelenterazine as a substrate for the exported enzyme. The emission intensities were normalized against unplatinated plasmids as a control. Transcription profiles were obtained by plotting normalized levels of GLuc expression against platination levels (Pt/plasmid ratio) at five different time points. […] An increase in D0 value at different time points represents restoration of transcription.

The conditions of series [5]: equimolar N-AcMet, 37° C.
Procedure: NMR spectra were collected on a Varian 500 spectrometer equipped with a triple-resonance broadband inverse probe and a variable temperature unit. The 1-D ^1H NMR kinetic studies were performed in duplicate as a standard time-arrayed experiment using a variable delayed list. Incremented 1-D spectra were processed in exactly the same way and signals of aromatic amine ligands from platinum compounds were integrated. The relative concentrations of the platinum compound at each time point were calculated from peak integrals. […] Reactions of platinum compounds with N-AcMet were performed in NMR tubes containing 2 mM of the Pt complex and 2 mM (1 equiv) of N-AcMet in 10 mM PBS buffer, D2O, pH*7.4 at 37° C. […] Deuterated 3-(trimethylsilyl)propionic acid sodium salt (TMS-PFASS) was used as an internal standard. The pH* values are the measured pH values without correction for the effect of deuterium on the electrode.
The next series relates to pGLuc plasmid. The series is described as follows: Platination of pGLuc plasmid. It is filed as biochemical.
The next series has as its system calf thymus DNA. As to the kind of experiment: Ethidium bromide DNA-binding competition, Scatchard analysis. More on the design: key: competitive (type A); non-competitive (type D); both (type B); No inhibition of ethidium binding is labeled as type C.
Series [6] concerns GLuc expression in A549 cells. The series is described as follows: Transcription assay, globally platinated pGLuc, A549. In kind it is cell-based, human. Conditions: for transcription level (normalized against unplatinated plasmid): Pt/DNA ratio of […] for phenanthriplatin. How it is done:
as §3, §4, §5

Series [7] relates to Human colon carcinoma HT29. The series is described as follows: MTT assay, HT29. In kind it is cell-based. How it is done: as §1, §2
Another series concerns human bone sarcoma U2OS. As to the kind of experiment: MTT assay, U2OS. It is filed as cell-based. The settings on record: 72-h incubation. Here is the method:
as §1, §2

For series [8], the system named is human lung carcinoma A549. The series is described as follows: MTT assay, A549. It is filed as cell-based.
Procedure: as §6, §7, §8
The next series concerns NTera2. As to the kind of experiment: MTT assay, NTera2. The settings on record: Table 3, NTera2 Testis, 72-h incubation. In kind it is cell-based, human.
For series [9], the system named is human prostate carcinoma PC3. The series is described as follows: MTT assay, PC3. In kind it is cell-based. Conditions: Table 3, PC3 Prostate, 72-h incubation.
Procedure: as §6, §7, §8
The test system of series [10] is human breast carcinoma MCF7. The series is described as follows: MTT assay, MCF7. It is filed as cell-based. The settings on record: Table 3, MCF7 Breast, 72-h incubation. How it is done: as §1, §2
Where [11] appears, read: Table 3, HT29 Colorectal, 72-h incubation.
Where [12] appears, read: Table 3, A549 Lung, 72-h incubation.
The mark [13] stands for this setting: Table 4, A549 human lung carcinoma, 72 h incubation.

One may read the IC50 as the midpoint of a concentration-inhibition curve.

Procedure for 5′-dGMP: as §9
Procedure for NTera2: as §6
Source text for calf thymus DNA: Using this approach, it is possible to determine whether the inhibition of ethidium binding is competitive (type A), non-competitive (type D), or both (type B). No inhibition of ethidium binding is labeled as type C.
Procedure for pGLuc plasmid: The resulting mixtures were dialyzed (molecular weight cut-off 3.5 kDa) against ddH2O overnight at 4° C. with five changes of ddH2O. The rb values (bound Pt/nucleotide) were determined by UV/Vis and atomic absorption spectroscopy.
In one embodiment, the ratio of bound platinum per plasmid was determined by measuring the Pt concentration by atomic absorption spectroscopy and the DNA concentration by UV/Vis spectroscopy.

Turning to `N.N.O=[N+]([O-])[O-].[Cl][Pt+].c1ccncc1` [pyriplatin, cis-[Pt(NH3)2(pyridine)Cl]NO3], the IC50 in [1] (Table 4, MRC5 normal lung fibroblast, 72 h incubation) stood at 92.1 ± 9.9 µM; in series [1] (Table 5, MRC5, 72-h incubation) it was 92.1 ± 9.9 µM; in [2] (Table 3, HeLa Cervix), 31.3 ± 2.8 µM; in series [2] (Table 5, HeLa), 31.3 ± 2.8 µM; in [7] (setting [11]), 144 ± 10 µM; in series [7] (Table 5, HT29, 72-h incubation) it was 144 ± 10 µM. For the same molecule, the concentration for half-maximal inhibition (IC50) in the series with human bone sarcoma U2OS (Table 3, U2OS Bone) was 78.9 ± 6.7 µM; in the series on human bone sarcoma U2OS (Table 5, U2OS), 78.9 ± 6.7 µM; in series [8] (setting [12]), 52.1 ± 2.3 µM; in [8] (setting [13]) it was 52.1 ± 2.25 µM; in series [8] (Table 5, A549, 72-h incubation), 52.1 ± 2.3 µM; with NTera2, 5.16 ± 0.96 µM. For the same molecule, the figures for the 50% inhibitory concentration (IC50) in [9] and in series [10] were 47.9 ± 9.2 µM and 109 ± 10 µM, respectively. Also, the “equilibrium constant for aquation” value in [3] is “approximately 0.05”. The “time after which aquation reaction is complete (equilibrium with aqua analogue)” value in series [3] worked out at 1 h. In the series on 5′-dGMP, the “pseudo-first order rate constant, reaction with 5′-dGMP” value is 0.29 h⁻¹. Further, the “transcription level (normalized against unplatinated plasmid)” value is 55.3% in series [4] (HT29, 12 h); 75.2% in [4] (HT29, 60 h); 55.2% in series [6] (A549, 12 h); 66.8% in series [6] (A549, 60 h). Further, the “D0 (Pt lesions per plasmid required to reduce transcription levels to 37% of control)” value in [4] (HT29, 12 h after transfection) came out at 35.6 Pt/plasmid; in series [4] (HT29, 24 h after transfection), 40.5 Pt/plasmid; in [4] (HT29, 36 h after transfection), 42.9 Pt/plasmid; in [4] (HT29, 48 h after transfection), 44.5 Pt/plasmid; in [4] (HT29, 60 h after transfection), 49.3 Pt/plasmid; in [6] (A549, 12 h after transfection), 39.2 Pt/plasmid. In addition, the “D0 (Pt lesions per plasmid required to reduce transcription levels to 37% of control)” value worked out at 58.5 Pt/plasmid in [6] (A549, 24 h after transfection); 68.8 Pt/plasmid in series [6] (A549, 36 h after transfection); 85.2 Pt/plasmid in series [6] (A549, 48 h after transfection); 89.1 Pt/plasmid in series [6] (A549, 60 h after transfection). In addition, in series [5], the “reaction with N-AcMet more rapid than that for phenanthriplatin” value is above 10 fold. For the same molecule, in series [5], the “second-order rate constant, reaction with N-AcMet” value worked out at 0.156 M⁻¹ s⁻¹. In addition, the Pt per plasmid with pGLuc plasmid (rf 0.0016, 16 h at 37° C.) is given as 13.33 Pt per plasmid; in the series with pGLuc plasmid (rf 0.004, 16 h at 37° C.), 31.19 Pt per plasmid; in the series on pGLuc plasmid (rf 0.0076, 16 h at 37° C.), 57.96 Pt per plasmid; in the series on pGLuc plasmid (rf 0.015, 16 h at 37° C.), 117.31 Pt per plasmid. Further, the “rb (bound Pt/nucleotide)” value in the series on pGLuc plasmid (rf 0.0016, 16 h at 37° C.) was determined as 0.0017; with pGLuc plasmid (rf 0.004, 16 h at 37° C.) it was 0.0039; with pGLuc plasmid (rf 0.0076, 16 h at 37° C.) it was 0.0073; in the series with pGLuc plasmid (rf 0.015, 16 h at 37° C.) it was 0.0015. The “type of inhibition of ethidium binding (Scatchard)” value in the series on calf thymus DNA (12-h incubation period) and with calf thymus DNA (1 min incubation period) was “type C” throughout.

As to `O=[N+]([O-])[O-].[NH3+][Pt-2]([NH3+])([Cl])[n+]1cccc2c3ccccc3ccc21` (stereo not drawn) [cis-[Pt(NH3)2(benzo[f]quinoline)Cl]NO3], the IC50 stood at 0.64 ± 0.01 µM in [2] (Table 5, HeLa); 0.88 ± 0.01 µM with human bone sarcoma U2OS (Table 5, U2OS); 0.83 ± 0.03 µM in series [8] (Table 5, A549, 72-h incubation).

On to “cis-[Pt(NH3)2 (1-methylimidazole)-Cl]NO3”, for which the IC50 in [1] (Table 5, MRC5, 72-h incubation) stood at 40.5 ± 1.1 µM; in series [7] (Table 5, HT29, 72-h incubation) it was 53.4 ± 8.5 µM; in [8] (Table 5, A549, 72-h incubation), 62 ± 0.8 µM.

On to `Cc1cccnc1N.N.N.O=[N+]([O-])[O-].[Cl][Pt+]` [cis-[Pt(NH3)2 (2-amino-3-methylpyridine)-Cl]NO3], for which the concentration for half-maximal inhibition (IC50) was found to be 51.7 ± 7.7 µM in series [1] (Table 5, MRC5, 72-h incubation); 72.9 ± 4.6 µM in [7] (Table 5, HT29, 72-h incubation); 47.1 ± 1.4 µM in [8] (Table 5, A549, 72-h incubation).

Consider cis-[Pt(NH3)2 (2-methylpyridine)Cl]NO3, for which the concentration for half-maximal inhibition (IC50) came out at 58.9 ± 4.2 µM in [1] (Table 5, MRC5, 72-h incubation); 63.8 ± 1.9 µM in series [7] (Table 5, HT29, 72-h incubation); 50.6 ± 1.7 µM in series [8] (Table 5, A549, 72-h incubation).

For `N.N.O=[N+]([O-])[O-].[Cl][Pt+].c1ccc2nc3ccccc3cc2c1` [cis-[Pt(NH3)2(acridine)Cl]NO3], the IC50 in series [1] (Table 5, MRC5, 72-h incubation) is 9.17 ± 0.47 µM; in [2] (Table 5, HeLa), 2.69 ± 0.1 µM; in series [7] (Table 5, HT29, 72-h incubation), 13.5 ± 0.7 µM; with human bone sarcoma U2OS (Table 5, U2OS), 4.42 ± 0.31 µM; in [8] (Table 5, A549, 72-h incubation), 3.74 ± 0.01 µM.

On to `N.N.O=[N+]([O-])[O-].[Cl][Pt+].c1ccc2cnccc2c1` [cis-[Pt(NH3)2(isoquinoline)Cl]NO3], for which the concentration for half-maximal inhibition (IC50) came to 26.4 ± 1 µM in series [1] (Table 5, MRC5, 72-h incubation); 45.6 ± 2.7 µM in series [7] (Table 5, HT29, 72-h incubation); 11.5 ± 0.4 µM in [8] (Table 5, A549, 72-h incubation).

Take cis-[Pt(NH3)2(quinoline)Cl]NO3: the 50% inhibitory concentration (IC50) amounted to 23.5 ± 1.6 µM in [1] (Table 5, MRC5, 72-h incubation); 12.2 ± 0.8 µM in series [2] (Table 5, HeLa); 38 ± 4.5 µM in series [7] (Table 5, HT29, 72-h incubation); 23.5 ± 2.7 µM in the series on human bone sarcoma U2OS (Table 5, U2OS); 8.11 ± 0.68 µM in series [8] (Table 5, A549, 72-h incubation).

As to `O=C1[O][Pt]2([NH][C@@H]3CCCC[C@H]3[NH]2)[O]C1=O` [oxaliplatin], the IC50 in [2] (Table 3, HeLa Cervix) amounted to 11.8 ± 1.4 µM; in [7] (setting [11]), 1.81 ± 1.15 µM; in the series on human bone sarcoma U2OS (Table 3, U2OS Bone) it was 8.67 ± 0.59 µM; in series [8] (setting [12]) it was 6.79 ± 0.26 µM; in [8] (setting [13]), 10.5 ± 0.18 µM; in the series with NTera2 it was 1.12 ± 0.08 µM. The concentration for half-maximal inhibition (IC50) in series [9] came to 13.2 ± 4 µM; in series [10], 17.9 ± 2.7 µM.

(Values after patent US9034862B2, “Compositions and methods for the treatment of cancer” (priority 2011, dated 2015).)
